Data: patent US20130040882A1, “USE OF FIBROBLAST GROWTH FACTOR FRAGMENTS” (NOVARTIS AG, priority 2003, published 2013)
“Also recorded” adds a separate entry of the source.

Experiments:
uterine gene expression = assay: Gene expression profiling (HGU133A) in the uterus of ovariectomized monkeys treated with estradiol, tamoxifen or raloxifene; assay type: in vivo, cynomolgus monkeys (Macaca fascicularis)
[1] = system: luteinising hormone and follicle-stimulating hormone genes in the pituitary gland; assay: Gene expression (HGU133A) in the pituitary gland of ovariectomized monkeys treated with estradiol, tamoxifen or raloxifene; assay type: in vivo, cynomolgus monkeys (Macaca fascicularis); conditions: OVX monkeys
Protocol: Female sexually mature cynomolgus monkeys (Macaca fascicularis obtained from R. C. Hartelust B V, Tilburg, the Netherlands) approximately 48 months old were subjected to surgery (ovarectomy [OVX] or sham) 10 weeks prior to treatment and were treated for parasitic arthropods and helminthes, subjected to a tuberculin testing, and acclimated to the treatment facility for at least 14 days before beginning treatment.
Surgical Procedures. The ovariectomized cynomolgus monkey (Macaca fascicularis), which has been validated as a useful model predictive of outcomes in human clinical trials of estrogen and SERMs (Cline J M et al., Toxicol Pathol. 29:84-90 (2001)), was used as a model of estrogen deficiency. Animals were ovariectomized approximately 10 weeks before the first day of treatment. The ovaries were removed following anesthesia with a combined intramuscular injection of xylazine (Rompun®: 0.4 mL/animal, Bayer Pharma Division Sante Animale, Puteaux, France) and ketamine hydrochloride (Imalgéne®: 0.6 mL/kg, Mérial, Lyon, France). Sham-operated animals were subjected to the same surgical procedure, except for the removal of ovaries.
Ovariectomized and sham-operated animals were divided into groups of 4 and treated as outlined below.
Gene expression was determined in the pituitary and uterus at the end of drug therapy. Tissues to be analyzed (pituitary glands and uterus) were excised, snap frozen in liquid nitrogen, and stored at −80° C. until RNA extraction was performed.
Total RNA was obtained by acid guanidinium isothiocyanate-phenol-chloroform extraction (Trizol; Invitrogen Life Technologies, San Diego, Calif., USA) and purified on an affinity resin column (RNeasy; Qiagen, Hilden, Germany) according to manufacturer instructions. […] Lockhart D J, Dong H, Byrne M C, et al. Nat. Biotechnol. 1996; 14:1675-1680.
Previous studies have proven the validity of cross-species DNA chip analysis (Hacia J G et al. Nat Genet. 18:155-158 (1998)), therefore, the human gene expression probe arrays HGU133A (Affymetrix, Santa Clara, Calif., USA) containing 22,283 probe sets interrogating primarily annotated human genes were used. One GeneChip was used per tissue, per animal. The resulting image files (.dat files) were processed using the Microarray Analysis Suite 5 (MAS5) software (Affymetrix, Inc.). Tab-delimited files were obtained containing data regarding signal intensity (Signal) and categorical expression level measurement (Absolute Call).

[2] = system: gene expression in organs; assay: Blind monkey trial of three peptides: gene expression profiling of organs on Affymetrix U95 chips; assay type: in vivo, cynomolgus monkeys; conditions: 100 μg/animal/day sc, two weeks
[3] = compared with untreated OVX controls

In the case of `O=C(c1ccc(OCCN2CCCCC2)cc1)c1c(-c2ccc(O)cc2)sc2cc(O)ccc12` [Ralolxifene], the “Fold change relative to SHAM control: Cadherin 11, type 2, OB-cadherin (osteoblast)” value (uterine gene expression; uterus, OVX monkeys) is reported as 0.8 fold, the “Fold change relative to SHAM control: Calcium channel, voltage-dependent, beta 2 subunit” value (uterine gene expression; uterus, OVX monkeys) is reported as 1.5 fold and the “Fold change relative to SHAM control: Catenin (cadherin-associated protein), alpha-like 1” value (uterine gene expression; uterus, OVX monkeys) is reported as 1.5 fold. The “Fold change relative to SHAM control: Dishevelled associated activator of morphogenesis 1” value (uterine gene expression; uterus, OVX monkeys) was 0.6 fold, the “Fold change relative to SHAM control: Four and a half LIM domains 2” value (uterine gene expression; uterus, OVX monkeys) was 0.6 fold and the “Fold change relative to SHAM control: Integrin, beta 5” value (uterine gene expression; uterus, OVX monkeys) was 0.9 fold. For the same compound, the “Fold change relative to SHAM control: LDL receptor adaptor protein” value (uterine gene expression; uterus, OVX monkeys) was 1.4 fold, the “Fold change relative to SHAM control: LIM and senescent cell antigen-like domains 1” value (uterine gene expression; uterus, OVX monkeys) was 0.8 fold and the “Fold change relative to SHAM control: Mitogen-activated protein kinase kinase kinase kinase 4” value (uterine gene expression; uterus, OVX monkeys) was 1.2 fold. For the same compound, the “Fold change relative to SHAM control: Phosphatase and tensin homolog (mutated in multiple advanced cancers 1)” value (uterine gene expression; uterus, OVX monkeys) was 0.7 fold, the “Fold change relative to SHAM control: Phospholipid transfer protein” value (uterine gene expression; uterus, OVX monkeys) was 0.7 fold and the “Fold change relative to SHAM control: Progesterone receptor” value (uterine gene expression; uterus, OVX monkeys) was 0.6 fold. The “Fold change relative to SHAM control: Protein tyrosine kinase 9” value (uterine gene expression; uterus, OVX monkeys) was 0.8 fold, the “Fold change relative to SHAM control: Secreted frizzled-related protein 1” value (uterine gene expression; uterus, OVX monkeys) was 0.8 fold and the “Fold change relative to SHAM control: Secreted frizzled-related protein 4” value (uterine gene expression; uterus, OVX monkeys) was 0.4 fold. For the same compound, the “Fold change relative to SHAM control: Wingless-type MMTV integration site family, member 2B” value (uterine gene expression; uterus, OVX monkeys) was 0.8 fold, the “Fold change relative to SHAM control: Wingless-type MMTV integration site family, member 16” value (uterine gene expression; uterus, OVX monkeys) was 0.8 fold and the “Fold change relative to SHAM control: Insulin receptor” value (uterine gene expression; uterus, OVX monkeys, Table 46) was 1.4 fold.

`C[C@]12CC[C@@H]3c4ccc(O)cc4CC[C@H]3[C@@H]1CC[C@@H]2O` [estradiol] was tested, and the “Decrease of FSH transcripts in the pituitary gland” value [1] was 73.4 fold, the “Decrease of LH transcripts in the pituitary gland” value [1] was 16.4 fold and the “Uterine expression increase: transport genes” value (uterine gene expression) was 2-7 fold. The “Uterine expression downregulation: thioredoxin interacting protein” value (uterine gene expression; compared with OVX control) was 3 fold, the “Uterine expression increase: Collagen type 1 alpha 2” value (uterine gene expression; compared with OVX controls) was 13.2 fold and the “Uterine expression increase: cell cycle proteins (CDC28 protein kinase regulatory subunit 2)” value (uterine gene expression; compared with OVX controls) was “up to 4 fold”. The “Uterine expression increase: collagen type 1 alpha1” value (uterine gene expression; compared with OVX controls) was 6.6 fold, the “Uterine expression increase: collagen type III alpha 1” value (uterine gene expression; compared with OVX controls) was 6.8 fold and the “Uterine expression increase: collagen type IV alpha 1” value (uterine gene expression; compared with OVX controls) was 4.3 fold. For the same compound, the “Uterine expression increase: cysteine-rich angiogenic inducer 61” value (uterine gene expression; compared with OVX controls) was 3.5 fold, the “Uterine expression increase: insulin-like GF binding protein 2 (36 kDa)” value (uterine gene expression; compared with OVX controls) was 7.1 fold and the “Uterine expression increase: insulin-like growth factor binding protein 5” value (uterine gene expression; compared with OVX controls) was 5.2 fold. The “Uterine expression increase: latent transforming growth factor beta binding protein 1” value (uterine gene expression; compared with OVX controls) was 3.6 fold, the “Uterine expression increase: Dishevelled associated activator of morphogenesis 1” value (uterine gene expression; [3]) was 3.1 fold and the “Uterine expression increase: integrin (beta 5)” value (uterine gene expression; [3]) was 1.7 fold. For the same compound, the “Uterine expression increase: progesterone receptor” value (uterine gene expression; [3]) was 9.8 fold, the “Uterine expression increase: secreted frizzled-related protein 1” value (uterine gene expression; [3]) was 7.1 fold and the “Uterine expression increase: secreted frizzled-related protein 4” value (uterine gene expression; [3]) was 4.2 fold. For the same compound, the “Uterine expression increase: wingless-type MMTV integration site (family, member 2B; wnt2B)” value (uterine gene expression; [3]) was 2.6 fold.

For Peptide 3: leukemia inhibitory factor, the “Conclusions of the in vivo Profiling by the Data Mining Team: Function/Pathway” value [2] was “Ca^++ bone metabolism; also recorded: Inflammation; also recorded: Immunosuppression; also recorded: Vascular differentiation” and the “Findings by the Data Mining Team: Skeletal muscle (gene with direction)” value [2] was “JunB and haptoglobin and phospholipase A2 typeIIA+”.
